The record followed here is US20060122181A1, “Heteroaromatic pentacyclic compound and medicinal use thereof” (Japan Tobacco Inc., priority 2003, published 2006).

What is called IC50 is the concentration at which inhibition is half-maximal. A word on the melting point: it is the temperature, or range, at which the solid turns liquid.

The structures appear in SMILES notation.

The first data set has as its target T1, Recombinant human protein tyrosine phosphatase 1B (Homo sapiens, UniProt P18031).
T1 construct: purchased UBI
T1 sequence (P18031 1-435): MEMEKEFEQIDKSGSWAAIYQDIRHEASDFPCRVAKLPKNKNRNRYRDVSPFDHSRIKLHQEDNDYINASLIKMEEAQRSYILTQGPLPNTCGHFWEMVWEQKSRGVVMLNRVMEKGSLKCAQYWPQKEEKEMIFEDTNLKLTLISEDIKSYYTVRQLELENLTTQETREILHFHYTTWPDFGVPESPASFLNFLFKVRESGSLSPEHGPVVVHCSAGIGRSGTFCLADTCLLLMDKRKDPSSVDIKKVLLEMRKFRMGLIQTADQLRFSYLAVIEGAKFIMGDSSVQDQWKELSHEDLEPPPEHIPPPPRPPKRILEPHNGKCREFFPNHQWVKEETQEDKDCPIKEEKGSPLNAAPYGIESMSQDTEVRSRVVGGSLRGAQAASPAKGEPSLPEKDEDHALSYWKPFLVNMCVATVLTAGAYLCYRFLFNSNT
The experiment in a line: Protein tyrosine phosphatase 1B inhibitory activity (malachite green, phosphorylated insulin receptor peptide substrate). In kind it is biochemical. As to conditions: recombinant human PTP1B, 60 min room temperature, absorbance 650 nm. On the procedure:
Preparation of Assay Buffer:
A 50 mM Tris-HCl buffer (pH 7.5), 50 mM NaCl and 3 mM dithiothreitol (DTT) were prepared.
[…] 0.1, 0.3, 1, 3 and 10 μM of the test compound were prepared and diluted with the above-mentioned assay buffer to the final dimethyl sulfoxide (DMSO) concentration of not more than 1%. As the control, the assay buffer was used.
Preparation of Substrate:
Recombinant human protein tyrosine phosphatase 1B (manufactured by UBI) was diluted with the above-mentioned assay buffer (1.2 ng/25 μl).
The sample (10 μl) prepared as mentioned above and a substrate (25 μl) were successively added to a 96 well plate, and the enzyme (25 μl) prepared as mentioned above was added and mixed. The mixture was incubated at room temperature for 60 min and a malachite green (120 μl, Biomol), which is a color reagent, was added. The mixture was further incubated at room temperature for 20 min to allow for color development. An absorbance at 650 nm was measured on a plate reader based on which the protein tyrosine phosphatase 1B inhibitory activity of the test compound was evaluated.
Regarding `CN(Cc1ccc(C2CCC(C)(C)CC2)cc1)c1ccc(-c2csc(CN(CC(=O)O)Cc3ccccc3)n2)cc1` [Example 3-35], the IC50 came to 0.073 µM. For the compound `CCCC(CCC)c1ccc(OCc2ccc(-c3csc(CN(CC(=O)O)C(=O)N(C)c4ccccc4)c3)cc2)cc1` [Example 4-72], the IC50 worked out at 0.29 µM. Same read-out and setting: the result for `CN(Cc1ccc(C(=O)O)cc1)c1nc(-c2ccc(C(=O)Nc3ccc(C4CCCCC4)cc3)cc2)cs1` [Example 1-53] reads 0.24 µM; that for `CCCC(CCC)c1ccc(OCc2ccc(-c3ccc(C(=O)N(CC(=O)O)Cc4ncc(C(C)(C)C)s4)s3)cc2)cc1` [Example 4-43], 0.16 µM; that for `CCCC(CCC)c1ccc(OCc2ccc(-c3csc(COc4cc(C(=O)O)ccc4NC(=O)CN(C)C)c3)cc2)cc1` [Example 4-56], 0.2 µM. On to `CCCC(CCC)c1ccc(OCc2ccc(-c3csc(CN(C)S(=O)(=O)c4ccc(C(=O)O)cc4)n3)cc2)cc1` [Example 1-50], for which the half-maximal inhibitory concentration (IC50) was 0.14 µM. Regarding `CCCC(CCC)c1ccc(OCc2ccc(-c3ccc(CN(CC(=O)O)Cc4nc(C(C)(C)C)cs4)s3)cc2)cc1` [Example 4-35], the IC50 stood at 0.087 µM.

With `CCCC(CCC)c1ccc(OCc2ccc(-c3csc(COc4cc(C(=O)O)ccc4N(C)S(C)(=O)=O)c3)cc2)cc1` [Example 4-59], the IC50 was 0.18 µM.

For the compound `CCCC(CCC)c1ccc(OCc2ccc(-c3ccc(CN(CC(=O)O)Cc4nc5ccccc5n4C)s3)cc2)cc1` [Example 4-1], the half-inhibitory concentration (IC50) is 0.15 µM. With `CCCC(CCC)c1ccc(OCc2ccc(-c3ccc(CN(CC(=O)O)C(c4ccccc4)c4ccccc4)s3)cc2)cc1` [Example 4-81], the IC50 was < 0.1 µM.

Tested on in the next data set: not given
Test: not given
Conditions: not given
`CCC(CC)c1ccc(N(Cc2ccc(-c3ccc(CN(CC(=O)O)Cc4nc5ccccc5[nH]4)s3)cc2)C(C)C)cc1` [Example 4-21] showed a melting point of 142 to 146 °C. As for `CN(Cc1ccc(C2CCC(C)(C)CC2)cc1)c1ccc(-c2csc(CN(C)S(=O)(=O)CC(=O)O)n2)cc1` [Example 3-99], the melting point was 184 to 190 °C. In turn, `CCCC(CCC)c1ccc(Cn2cc(-c3csc(CN4CCC(C(=O)O)CC4)n3)c3ccccc32)cc1` [Example 1-165] showed a melting point of 111 to 115 °C.

The compound `CCCC(CCC)c1ccc(OCc2ccc(-c3csc(CN(CC(=O)O)C(=O)COc4ccc(C(C)C)cc4)n3)cc2)cc1` [Example 1-135] registered a melting point of 192 to 194 °C. For `CCC(CC)c1ccc(N(Cc2ccc(-c3csc(COc4cncc(C(=O)OC)c4)n3)cc2)C(C)C)cc1` [Example 1-89], the melting point was in the range of 111 to 113 °C. Turning to `CCC(CC)c1ccc(N(Cc2ccc(-c3csc(CNc4cccc(C(=O)O)c4)n3)cc2)C(C)C)cc1` [Example 1-92], the melting point lay within 159 to 160 °C. In turn, `CN(Cc1ccc(C2CCCCC2)cc1)c1ccc(-c2csc(CN(C)S(=O)(=O)c3cccc(C(=O)O)c3)n2)cc1` [Example 3-101] yielded a melting point of 164 to 166 °C. For `CCCC(CCC)c1ccc(OCc2ccc(-c3ccc(C(=O)N(CC(=O)O)Cc4ccccn4)s3)cc2)cc1` [Example 4-46], the melting point was in the range of 147 to 150 °C. Compound `CCC(CC)c1ccc(N(Cc2ccc(-c3csc(CN(C)c4ccc(OCC(=O)O)c(C(=O)O)c4)n3)cc2)C(C)C)cc1` [Example 1-124] registered a melting point of 124 °C. On to `CCC(CC)c1ccc(N(Cc2ccc(-c3csc(COc4cc(C(=O)O)ccc4N)n3)cc2)C(C)C)cc1` [Example 1-90], for which the melting point lay within 179 to 181 °C. Compound `CCC(CC)N(Cc1ccc(-c2csc(COc3cncc(C(=O)O)c3)n2)cc1)c1ccc(C(C)C)cc1` [Example 1-12] yielded a melting point of 110 to 114 °C. On the same count and under the same terms, the result for `CCCC(CCC)c1ccc(OCc2ccc(-c3csc(COc4cncc(C(=O)O)c4)c3)cc2)cc1.O=S(=O)(O)O` [Example 4-48] reads 151 to 155 °C (dec.); that for `CN(Cc1ccccc1)c1ccc(-c2csc(CN(CC(=O)O)Cc3ccc(Cl)cc3)n2)cc1` [Example 3-49], 140 to 142 °C.

With `CCCC(CCC)c1ccc(OCc2ccc(-c3csc(CN(CC(=O)O)CC(=O)Nc4ccccc4)n3)cc2)cc1` [Example 1-95], the melting point was 149.5 °C. Consider `CCC(CC)c1ccc(COc2ccc(-c3csc(CN(CC(=O)O)Cc4ccc(Cl)cc4)n3)cc2)cc1` [Example 3-17], for which the melting point was 154 to 157 °C. In the case of `CCCC(CCC)c1ccc(Cn2c(-c3ccccc3)c(-c3csc(CN4CCC(C(=O)O)CC4)n3)c3ccccc32)cc1` [Example 1-183], the melting point is 101 to 103 °C. The compound `CCC(CC)c1ccc2c(c1)nc(-c1csc(COc3ccc(C(=O)O)cc3)n1)n2CC1CCCCC1` [Example 3-132] yielded a melting point of 176 to 183 °C.

For `CCCC(CCC)c1ccc(OCc2ccc(-c3csc(Cn4nc(C)cc4C(=O)O)n3)cc2)cc1` [Example 1-176], the melting point is 141 to 143 °C. As for `CCCC(CCC)c1ccc(COc2ccc(-c3csc(CN(CC(=O)O)Cc4csc(C)n4)n3)c(C)c2)cc1` [Example 3-122], the melting point lay within 98 to 103 °C. Consider `CN(Cc1nc(-c2ccc(N(C)Cc3ccc(C4CCCCC4)cc3)cc2)cs1)C(=O)c1ccc(C(=O)O)cc1` [Example 3-107], for which the melting point lay within 162 to 164 °C. Same read-out and setting: to `CC(C)c1ccc(CN(c2ccc(-c3csc(CN(CC(=O)O)Cc4ccc(C(C)(C)C)cc4)n3)cc2)C(C)C)cc1` [Example 3-46] belongs 82 to 87 °C; to `CN(CCc1ccc(CC(C)(C)C)cc1)c1ccc(-c2csc(CN(CC(=O)O)Cc3ccccc3)n2)cc1` [Example 3-31], 133 to 134 °C; to `CCCC(CCC)c1ccc(COc2ccc(C)cc2-c2csc(CN(C)c3ccc(C(=O)O)cc3)n2)cc1` [Example 3-7], 184 to 187 °C. Turning to `CCCCOc1ccc(COc2ccc(-c3csc(CN4CCC(c5cccc(C(=O)O)c5)CC4)n3)cc2)cc1` [Example 1-175], the melting point is 222 to 225 °C. `CCCC(CCC)c1ccc(COc2ccc(-c3csc(CN4CCN(c5ccc(C(=O)O)cc5)CC4)n3)cc2)cc1` [Example 3-127]: the melting point was in the range of 241 to 243 °C. `CC(C)CN(Cc1nc(-c2ccc(N(C)Cc3ccc(C4CCCCC4)cc3)cc2)cs1)S(=O)(=O)CC(=O)O` [Example 3-104]: the melting point fell in the range of 104 to 110 °C. `CC(C)Cc1ccc(CN(C)c2ccc(-c3csc(CN(CC(=O)O)Cc4ccccc4)n3)cc2)cc1` [Example 3-39]: the melting point was in the range of 149 to 151 °C. `CCCC(CCC)c1ccc(COc2ccc(-c3csc(COc4ccc(C(=O)O)cc4)n3)cc2)cc1` [Example 3-2] had a melting point of 204 to 207 °C. The compound `CCCC(CCC)c1ccc(CNC(=O)c2ccc(-c3csc(CN(CC(=O)O)Cc4ccccc4)n3)cc2)cc1` [Example 1-55] yielded a melting point of 141 to 143 °C. In turn, `CCCC(CCC)c1ccc(N(Cc2ccc(-c3csc(CN(CC(=O)O)Cc4nc(C)c(C)s4)n3)cc2)C(C)C)cc1` [Example 1-146] yielded a melting point of 156 to 157 °C. Take `O=C(O)CN(Cc1ccccc1)Cc1cc(-c2ccc(COc3cc(Cl)cc(Cl)c3)cc2)cs1` [Example 4-105]: the melting point is 202.3 to 204.2 °C. Take `CCCC(CCC)c1ccc(N(Cc2ccc(-c3csc(COc4cc(C(=O)O)ccc4NC(=O)CNC)n3)cc2)C(C)C)cc1` [Example 1-126]: the melting point was 210 to 212 °C. In turn, `CCCC(CCC)c1ccc(COc2ccc(-c3csc(CN(CC(=O)O)C(=O)c4ccc(OC)cc4)n3)cc2)cc1` [Example 3-24] registered a melting point of 99 to 101 °C. Turning to `CN(Cc1ccc(C2CCCCC2)cc1)c1ccc(-c2csc(CNS(=O)(=O)c3ccc(C(=O)O)cc3)n2)cc1` [Example 3-97], the melting point fell in the range of 202 to 203 °C.

In turn, `CCCC(CCC)c1ccc(OCc2ccc(-c3csc(COc4cncc(C(=O)O)c4)c3)cc2)cc1.Cl` registered a melting point of 170 to 173 °C. Still for that read-out and setting: to `CCCC(CCC)c1ccc(OCc2ccc(-c3csc(CN(CC(=O)O)Cc4nc(C(C)(C)C)cs4)c3)cc2)cc1` [Example 4-15] belongs 166 °C; to `O=C(O)c1cccc(C2CCN(Cc3nc(-c4ccc(OCc5ccc(Cl)c(Cl)c5)cc4)cs3)CC2)c1` [Example 1-173], 197 to 199 °C; to `CCCC(CCC)c1ccc(OCc2ccc(-c3csc(CN(CC(=O)O)CC(=O)Nc4ccccn4)n3)cc2)cc1` [Example 1-100], 133.5 °C.

As for `CCCC(CCC)c1ccc(COc2ccc(-c3csc(CN4Cc5ccccc5C[C@H]4C(=O)[O-])n3)cc2)cc1.[Na+]` [Example 3-112], the melting point was in the range of 254 to 255 °C. Regarding `CCCC(CCC)c1ccc(COc2ccc(-c3csc(CN(CC(=O)O)Cc4cscn4)n3)c(C)c2)cc1` [Example 3-121], the melting point was 103 to 104 °C. Regarding `CCC(CC)CN(Cc1ccc(-c2csc(COc3cncc(C(=O)O)c3)n2)cc1)c1ccc(C(C)C)cc1` [Example 1-74], the melting point worked out at 181 °C.
